Results reported in patent US20070128217A1 (priority 2003, published 2007).

How the values were obtained:
[1] = test system: antibodies in sera from SARS patients (sera 1a, 1b, 2, 6, 37, 62, London, SARS-yellow, SARS-green); format: binding, human; set-up: Binding of serum 6 to linear peptides of protein X1 of SARS-CoV Urbani / Binding of serum 37 to linear peptides of protein X1 of SARS-CoV Urbani / Binding of serum 6 to looped/cyclic peptide (PEPSCAN-ELISA) / Binding of serum 37 to looped/cyclic peptide (PEPSCAN-ELISA) / Binding of serum 37 to looped/cyclic peptides of protein X1 of SARS-CoV Urbani / Binding of serum 6 to linear peptides of protein X2 / Binding of serum 37 to linear peptides of protein X2 / Binding of serum 37 to looped/cyclic peptides of protein X2 of SARS-CoV Urbani / Binding of serum 6 to linear peptides of protein M of SARS-CoV Urbani / Binding of serum 37 to linear peptides of protein M of SARS-CoV Urbani / Binding of serum 6 to looped/cyclic peptides of protein M of SARS-CoV Urbani / Binding of serum 37 to looped/cyclic peptides of protein M of SARS-CoV Urbani / Binding of serum 6 to linear peptides of protein X3 of SARS-CoV Urbani / Binding of serum 37 to linear peptides of protein X3 of SARS-CoV Urbani / Binding of serum 37 to looped/cyclic peptides of protein X3 of SARS-CoV Urbani / Binding of serum 6 to linear peptides of protein X4 of SARS-CoV Urbani / Binding of serum 37 to linear peptides of protein X4 of SARS-CoV Urbani / Binding of serum 37 to looped/cyclic peptides of protein X4 of SARS-CoV Urbani / Binding of serum 6 to linear peptides of protein X5 of SARS-CoV Urbani / Binding of serum 37 to linear peptides of protein X5 of SARS-CoV Urbani / Binding of serum 37 to looped/cyclic peptides of protein X5 of SARS-CoV Urbani / Binding of serum 6 to linear peptides of protein N of SARS-CoV Urbani / Binding of serum 37 to linear peptides of protein N of SARS-CoV Urbani / Binding of serum 6 to linear peptide (PEPSCAN-ELISA) / Binding of serum 1a to looped/cyclic peptides of protein N of SARS-CoV Urbani / Binding of serum 1b to looped/cyclic peptides of protein N of SARS-CoV Urbani / Binding of serum 2 to looped/cyclic peptides of protein N of SARS-CoV Urbani / Binding of serum 6 to looped/cyclic peptides of protein N of SARS-CoV Urbani / Binding of serum 37 to looped/cyclic peptides of protein N of SARS-CoV Urbani / Binding of serum 62 to looped/cyclic peptides of protein N of SARS-CoV Urbani / Binding of serum London to looped/cyclic peptides of protein N of SARS-CoV Urbani / Binding of serum SARS-green to looped/cyclic peptides of protein N of SARS-CoV Urbani: unit not given here
[2] = test system: control sera (pooled serum of ten healthy LUMC hospital workers; commercial negative donor pooled serum from the Dutch bloodbank); format: binding, human; set-up: Binding of Control serum LUMC to linear peptides / Binding of Control serum Blood-bank to linear peptides / Binding of Control serum LUMC to looped peptides / Binding of Control Serum Blood-Bank to Looped peptides / Binding of Control serum LUMC to linear peptides of the protein M of SARS-CoV Urbani / Binding of Control serum Blood-bank to linear peptides of the protein M of SARS-CoV Urbani / Binding of Control serum LUMC to looped peptides of the protein M of SARS-CoV Urbani / Binding of Control Serum Blood-Bank to Looped peptides of the protein M of SARS-CoV Urbani: unit not given here
[3] = test system: rabbit serum obtained by immunizing a rabbit with the SARS-CoV strain Frankfurt 1; format: binding; set-up: Binding of a rabbit serum to linear peptides / Binding of a rabbit serum to looped peptides / Rabbit serum linear peptides / Rabbit serum looped peptides / Binding of a rabbit serum to linear peptides of protein N of SARS-CoV Urbani (Rabbit serum linear peptides) / Binding of a rabbit serum to looped/cyclic peptides of protein N of SARS-CoV Urbani (Rabbit serum looped peptides): unit not given here

Row | Sequence | Binding of serum 1a to linear peptides of protein M of SARS-CoV Urbani [1] | Binding of serum 1a to looped/cyclic peptides of protein M of SARS-CoV Urbani [1] | Binding of serum 1b to linear peptides of protein M of SARS-CoV Urbani [1] | Binding of serum 1b to looped/cyclic peptides of protein M of SARS-CoV Urbani [1] | Binding of serum 2 to linear peptides of protein M of SARS-CoV Urbani [1] | Binding of serum 2 to looped/cyclic peptides of protein M of SARS-CoV Urbani [1] | Binding of serum 6 to linear peptides of protein M of SARS-CoV Urbani [1] | Binding of serum 6 to looped/cyclic peptides of protein M of SARS-CoV Urbani [1] | Binding of serum 37 to linear peptides of protein M of SARS-CoV Urbani [1] | Binding of serum 37 to looped/cyclic peptides of protein M of SARS-CoV Urbani [1] | Binding of serum 62 to linear peptides of protein M of SARS-CoV Urbani [1] | Binding of serum 62 to looped/cyclic peptides of protein M of SARS-CoV Urbani [1] | Binding of serum London to linear peptides of protein M of SARS-CoV Urbani [1] | Binding of serum London to looped/cyclic peptides of protein M of SARS-CoV Urbani [1] | Binding of serum SARS-green to linear peptides of protein M of SARS-CoV Urbani [1] | Binding of serum SARS-green to looped/cyclic peptides of protein M of SARS-CoV Urbani [1] | Binding of serum SARS-yellow to linear peptides of protein M of SARS-CoV Urbani [1] | Binding of serum SARS-yellow to looped/cyclic peptides of protein M of SARS-CoV Urbani [1] | Binding of Control Serum Blood-Bank to Looped peptides of the protein M of SARS-CoV Urbani [2] | Binding of Control serum Blood-bank to linear peptides of the protein M of SARS-CoV Urbani [2] | other results
1 | RTRSMWSFNPETNIL | 0.9 | 0.7 | 0.8 | 0.3 | 0.8 | 0.8 | 0.4 | 0.7 | 0.9 | 0.9 | 0.9 | 0.9 | 0.3 | 0.2 | 0.3 | 0.0 | 0.1 | 0.7 | 0.7 | 0.9 | Binding of Control serum LUMC to linear peptides of the protein M of SARS-CoV Urbani [2]: 0.7; Binding of Control serum LUMC to looped peptides of the protein M of SARS-CoV Urbani [2]: 0.7; Rabbit serum linear peptides [3]: 0.6; Rabbit serum looped peptides [3]: 0.4
2 | RVGTDSGFAAYNRYR | 0.7 | 0.8 | 0.1 | 0.5 | 0.5 | 0.6 | 0.5 | 1.4 | 0.6 | 0.7 | 0.2 | 0.6 | 0.3 | 0.4 | 0.5 | 0.3 | 0.3 | 0.5 | 0.5 | 0.7 | Binding of Control serum LUMC to linear peptides of the protein M of SARS-CoV Urbani [2]: 0.4; Binding of Control serum LUMC to looped peptides of the protein M of SARS-CoV Urbani [2]: 0.6; Rabbit serum linear peptides [3]: 0.0; Rabbit serum looped peptides [3]: 0.3
